In PubChem BioAssay AID256 (DTP/NCI, 2004):
Where “and” joins values, the source holds several entries; their conditions need not be identical. Equal entries are not always repeated. Inconclusive results and toxic doses are left out. How the source made its calls: active means survival T/C of 150% or more; inactive means T/C below 125% in these data. Non-standard residues stand in square brackets, D forms with d. Residues, ends and D or L forms follow the SMILES beside them. ξ: configuration not given here. *: point of attachment. ξV = CC(C)C(N)C(=O)O; ClAc = O=C(CCl)*

System: CD2F1 mice, L1210 leukemia ip, survival T/C
Experiment: NCI In Vivo Anticancer Drug Screen. Data for tumor model L1210 Leukemia (intraperitoneal) in CD2F1 (CDF1) mice
Conditions: endpoint: mean survival time, higher = longer survival
Method: The antitumor activity of compounds was measured in mice bearing transplantable tumors. Survival or tumor size were measured and the results are expressed as the measurement made in the treated group (T) divided by the measurement made in the vehicle treated control group (C). The tumor model used in this assay is L1210 Leukemia (intraperitoneal) in CD2F1 (CDF1) mice

[1] = dose: 100.0 mg/kg/injection, schedule: Q04DX003 (ip), vehicle: saline
[2] = dose: 200.0 mg/kg/injection, schedule: Q04DX003 (ip), vehicle: saline
[3] = dose: 75.0 mg/kg/injection, schedule: Q01DX009 (ip), vehicle: saline
[4] = dose: 100.0 mg/kg/injection, schedule: Q04DX002 (ip), vehicle: saline with Tween-80
[5] = dose: 150.0 mg/kg/injection, schedule: Q01DX009 (ip), vehicle: saline
[6] = dose: 200.0 mg/kg/injection, schedule: Q04DX002 (ip), vehicle: saline with Tween-80
[7] = dose: 400.0 mg/kg/injection, schedule: Q04DX002 (ip), vehicle: saline with Tween-80
[8] = dose: 100.0 mg/kg/injection, schedule: Q01DX001 (ip), vehicle: saline
[9] = dose: 25.0 mg/kg/injection, schedule: Q01DX009 (ip), vehicle: saline with Tween-80
[10] = dose: 50.0 mg/kg/injection, schedule: Q01DX009 (ip), vehicle: saline with Tween-80
[11] = dose: 100.0 mg/kg/injection, schedule: Q01DX009 (ip), vehicle: saline with Tween-80
[12] = dose: 100.0 mg/kg/injection, schedule: Q04DX003 (ip), vehicle: saline with Tween-80
[13] = dose: 200.0 mg/kg/injection, schedule: Q04DX003 (ip), vehicle: saline with Tween-80
[14] = dose: 12.5 mg/kg/injection, schedule: Q01DX009 (ip), vehicle: saline with Tween-80
[15] = dose: 200.0 mg/kg/injection, schedule: Q01DX009 (ip), vehicle: saline with Tween-80
[16] = dose: 400.0 mg/kg/injection, schedule: Q01DX009 (ip), vehicle: saline with Tween-80
[17] = dose: 400.0 mg/kg/injection, schedule: Q04DX003 (ip), vehicle: saline with Tween-80

Measured: T/C

COC(=O)C/C(=C/C=C1/C(=O)ON=C1C)c1c(C)[nH]oc1=O
inactive: dose: 100.0 mg/kg/injection, schedule: Q01DX009 (ip), vehicle: saline 87 % of control | [1] 101 % of control | dose: 200.0 mg/kg/injection, schedule: Q01DX009 (ip), vehicle: saline 92 % of control | [2] 106 % of control | dose: 400.0 mg/kg/injection, schedule: Q01DX009 (ip), vehicle: saline 87 % of control | dose: 400.0 mg/kg/injection, schedule: Q04DX003 (ip), vehicle: saline 108 % of control

O=C(NNc1ccccc1)c1ccccc1
inactive: dose: 12.5 mg/kg/injection, schedule: Q01DX009 (ip), vehicle: Klucel (hydroxypropylcellulose) (HPC) 110 % of control | dose: 25.0 mg/kg/injection, schedule: Q01DX009 (ip), vehicle: Klucel (hydroxypropylcellulose) (HPC) 105 % of control | dose: 50.0 mg/kg/injection, schedule: Q01DX009 (ip), vehicle: Klucel (hydroxypropylcellulose) (HPC) 106 % of control | [3] 96 % of control | [4] 110 % of control | [5] 97 % of control | [6] 100 % of control | dose: 300.0 mg/kg/injection, schedule: Q01DX009 (ip), vehicle: saline 98 % of control | [7] 110 % of control

N=C(N)SCc1cccc([N+](=O)[O-])c1
inactive: [4] 97 % of control

O=c1[nH]c2cc([N+](=O)[O-])ccc2c2ccccc12
inactive: dose: 50.0 mg/kg/injection, schedule: Q01DX001 (ip), vehicle: carboxymethylcellulose (CMC) 101 % of control | dose: 100.0 mg/kg/injection, schedule: Q01DX001 (ip), vehicle: carboxymethylcellulose (CMC) 98 % of control | dose: 200.0 mg/kg/injection, schedule: Q01DX001 (ip), vehicle: carboxymethylcellulose (CMC) 98 % of control | dose: 400.0 mg/kg/injection, schedule: Q01DX001 (ip), vehicle: carboxymethylcellulose (CMC) 98 % of control

O=C1C=C(O)c2ccccc2C1=O
inactive: dose: 25.0 mg/kg/injection, schedule: Q01DX001 (ip), vehicle: saline 106 % of control | dose: 50.0 mg/kg/injection, schedule: Q01DX001 (ip), vehicle: saline 106 % of control | [8] 102 % of control

O=C(CCl)n1nc(Cl)c2ccc([N+](=O)[O-])cc21
inactive: [8] 98 % of control | dose: 200.0 mg/kg/injection, schedule: Q01DX001 (ip), vehicle: saline 98 % of control

COC(=O)CC(=O)C12OC1CC1C3CC=C4CC(OC(C)=O)CCC4(C)C3CCC12C (centres undefined)
inactive: dose: 75.0 mg/kg/injection, schedule: Q04DX003 (sc), vehicle: steriod suspending solution 101 % of control | dose: 150.0 mg/kg/injection, schedule: Q04DX003 (sc), vehicle: steriod suspending solution 103 % of control | dose: 300.0 mg/kg/injection, schedule: Q04DX003 (sc), vehicle: steriod suspending solution 97 % of control

CC(C)C(NC(=O)CNC(=O)CCl)C(=O)O (centres undefined) (ClAc-Gly-[ξV]-OH)
inactive: [9] 92 % of control | dose: 25.0 mg/kg/injection, schedule: Q04DX003 (ip), vehicle: saline with Tween-80 96 % of control | [10] 97 % of control | dose: 50.0 mg/kg/injection, schedule: Q04DX003 (ip), vehicle: saline with Tween-80 100 % of control | [11] 97 % of control | [12] 100 % of control

c1cc[n+]2c(c1)-c1cccc[n+]1CCCC2
inactive: [3] 108 % of control | dose: 75.0 mg/kg/injection, schedule: Q04DX003 (ip), vehicle: saline 98 % of control | [5] 100 % of control | dose: 150.0 mg/kg/injection, schedule: Q04DX003 (ip), vehicle: saline 93 % of control | dose: 300.0 mg/kg/injection, schedule: Q04DX003 (ip), vehicle: saline 96 % of control

O=c1nc(-c2ccccc2)c(-c2ccccc2)n[nH]1
inactive: [1] 97 % of control | [2] 94 % of control

CC(C)(C)COC(=S)Oc1ccc(C(C)(C)C)cc1
inactive: [4] 89 % of control | [6] 104 % of control | [7] 100 % of control

CC(C)CC(N)C(=O)NCCCCCCCCCCNC(=O)C(N)CC(C)C (centres undefined)
inactive: dose: 6.25 mg/kg/injection, schedule: Q01DX010 (ip), vehicle: saline 100 % of control | dose: 12.5 mg/kg/injection, schedule: Q01DX010 (ip), vehicle: saline 113 % of control | dose: 25.0 mg/kg/injection, schedule: Q01DX010 (ip), vehicle: saline 97 % of control | dose: 50.0 mg/kg/injection, schedule: Q01DX010 (ip), vehicle: saline 91 % of control

OCC1OC(n2cnc3c2NC=N[C@@H]3CO)C(O)C1O (some centres undefined)
inactive: dose: 12.5 mg/kg/injection, schedule: Q01DX005 (ip), vehicle: water 100 % of control | dose: 25.0 mg/kg/injection, schedule: Q01DX005 (ip), vehicle: water 100 % of control | dose: 50.0 mg/kg/injection, schedule: Q01DX005 (ip), vehicle: water 104 % of control | dose: 100.0 mg/kg/injection, schedule: Q01DX005 (ip), vehicle: water 109 % of control | dose: 200.0 mg/kg/injection, schedule: Q01DX005 (ip), vehicle: water 111 % of control

O=C(O)c1c(F)c(F)c2c(F)c(F)c(F)c(F)c2c1F
inactive: [12] 93 % of control | [13] 92 % of control

CC(Cc1ccc(O)cc1)NCC(O)c1ccc(O)c(O)c1 (centres undefined)
inactive: [14] 102 % of control and 104 % of control | [9] 103 % of control and 104 % of control | [10] 105 % of control and 111 % of control | [11] 108 % of control and 111 % of control | [15] 103 % of control and 111 % of control | [16] 113 % of control and 112 % of control

O=C(Nc1ccc([N+](=O)[O-])cc1)OCC#CC#CCOC(=O)Nc1ccc([N+](=O)[O-])cc1
inactive: dose: 100.0 mg/kg/injection, schedule: Q04DX003 (ip), vehicle: Klucel (hydroxypropylcellulose) (HPC) 94 % of control | dose: 200.0 mg/kg/injection, schedule: Q04DX003 (ip), vehicle: Klucel (hydroxypropylcellulose) (HPC) 94 % of control

O=C(O)CCn1ccccc1=O
inactive: [11] 94 % of control | [12] 95 % of control | [15] 93 % of control | [13] 96 % of control | [16] 94 % of control | [17] 95 % of control

NCCS[As](=O)(O)SCCN
inactive: [14] 97 % of control | dose: 12.5 mg/kg/injection, schedule: Q04DX003 (ip), vehicle: saline 101 % of control | [9] 103 % of control | dose: 25.0 mg/kg/injection, schedule: Q04DX003 (ip), vehicle: saline 98 % of control | [10] 94 % of control | dose: 50.0 mg/kg/injection, schedule: Q04DX003 (ip), vehicle: saline 101 % of control

CC1NCCOC1c1ccccc1 (centres undefined)
inactive: [1] 100 % of control | [2] 102 % of control

Cc1nnc(C(N)=O)c(=O)[nH]1
inactive: dose: 100.0 mg/kg/injection, schedule: Q01DX001 (ip), vehicle: Klucel (hydroxypropylcellulose) (HPC) 102 % of control | dose: 200.0 mg/kg/injection, schedule: Q01DX001 (ip), vehicle: Klucel (hydroxypropylcellulose) (HPC) 98 % of control | dose: 400.0 mg/kg/injection, schedule: Q01DX001 (ip), vehicle: Klucel (hydroxypropylcellulose) (HPC) 100 % of control

CC(C)(O)C#CC#CC(C)(C)O
inactive: dose: 100.0 mg/kg/injection, schedule: Q01DX001 (ip), vehicle: saline with Tween-80 102 % of control | dose: 200.0 mg/kg/injection, schedule: Q01DX001 (ip), vehicle: saline with Tween-80 96 % of control

O=C(O)CCN(Cl)Cl
inactive: dose: 1.56 mg/kg/injection, schedule: Q01DX009 (ip), vehicle: saline 97 % of control | dose: 3.13 mg/kg/injection, schedule: Q01DX009 (ip), vehicle: saline 102 % of control | dose: 6.25 mg/kg/injection, schedule: Q01DX009 (ip), vehicle: saline 100 % of control

CC(=O)[CH-]C(C)=O.CC(=O)[CH-]C(C)=O.CC(N)CN.[Ni+2]
inactive: dose: 50.0 mg/kg/injection, schedule: Q01DX009 (ip), vehicle: other 100 % of control

CCOC(=O)/C=C/SCCCN
inactive: [1] 98 % of control | [2] 96 % of control

COc1ccc(OC)c(NC(=O)Nc2ccc(C)c([N+](=O)[O-])c2)c1
inactive: [10] 98 % of control | [11] 94 % of control | [15] 94 % of control

O=CNc1cc2ccccc2c2ccc3ccccc3c12
inactive: [10] 94 % of control | [11] 94 % of control | [12] 89 % of control | [15] 97 % of control | [13] 89 % of control

CC(C)C1CCC2=C(CCC3C(C)(C(=O)O)CCCC23C)C1 (centres undefined)
inactive: [12] 95 % of control | [13] 88 % of control | [17] 89 % of control
